Reference: patent publication US5824521A, “Saccharide composition containing trehalulose, its preparation and uses” (Kabushiki Kaisha Hayashibara Seibutsu Kagaku Kenkyujo, priority 1996, dated 1998)
Structures can show the parent of a compound that is named as a salt.

Columns and labels:
[1] = test system: maltose/trehalose converting enzymes; conditions: one mM; cited from earlier work
dd-strain mice = assay: Acute toxicity test; assay type: in vivo; conditions: oral, 7-week-old, higher dose test impossible
Text: No mouse died up to a dose of 15 g/kg mouse by weight and a higher dose test was impossible. Thus the toxicity of the saccharide is extremely low.

α-glucosidase from yeast = α-glucosidase from yeast (Saccharomyces cerevisiae, UniProt P53341); assay: Hydrolysis by enzyme: α-glucosidase; assay type: biochemical; conditions: into glucose and fructose
Procedure: (§1) To identify the substance "X", the following confirmation tests were conducted using a high purity saccharide powder containing trehalulose prepared in Experiment 8: […]

[2] = in vivo, po
Procedure: In accordance with the method as reported by H. Atsuji et al. in "Journal of Clinical Nutrition", Vol.41, No.2, pp.200-208 (1972), 30 g of the saccharide powder rich in trehalulose with a purity of 98%, d.s.b., in Experiment 8 was prepared into a 20 w/v % aqueous solution which was then orally administered to 3 healthy male volunteers, and their blood were sampled at a prescribed time interval, followed by assaying the blood sugar- and insulin-levels. As a control glucose was used.

invertase from yeast = biological target: T1, invertase from yeast (Saccharomyces cerevisiae, UniProt P00724); assay: Hydrolysis by enzyme: invertase; assay type: biochemical
T1 sequence (P00724 20-532): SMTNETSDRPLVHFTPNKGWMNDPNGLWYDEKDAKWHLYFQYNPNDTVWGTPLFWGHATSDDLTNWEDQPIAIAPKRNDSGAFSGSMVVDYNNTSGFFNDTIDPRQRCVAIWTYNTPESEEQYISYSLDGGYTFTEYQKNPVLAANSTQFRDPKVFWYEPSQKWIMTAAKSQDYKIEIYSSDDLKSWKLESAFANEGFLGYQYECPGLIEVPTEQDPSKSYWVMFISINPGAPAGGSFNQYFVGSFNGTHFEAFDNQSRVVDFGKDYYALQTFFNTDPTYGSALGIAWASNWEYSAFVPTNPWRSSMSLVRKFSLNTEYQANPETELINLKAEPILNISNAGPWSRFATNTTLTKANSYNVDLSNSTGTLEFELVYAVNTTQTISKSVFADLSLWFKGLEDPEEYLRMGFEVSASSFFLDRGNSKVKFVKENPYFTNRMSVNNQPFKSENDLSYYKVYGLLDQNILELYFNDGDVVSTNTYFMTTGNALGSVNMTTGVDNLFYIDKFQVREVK
Procedure: as §1

Chain of α-glucosidase from yeast (P53341 whole entry): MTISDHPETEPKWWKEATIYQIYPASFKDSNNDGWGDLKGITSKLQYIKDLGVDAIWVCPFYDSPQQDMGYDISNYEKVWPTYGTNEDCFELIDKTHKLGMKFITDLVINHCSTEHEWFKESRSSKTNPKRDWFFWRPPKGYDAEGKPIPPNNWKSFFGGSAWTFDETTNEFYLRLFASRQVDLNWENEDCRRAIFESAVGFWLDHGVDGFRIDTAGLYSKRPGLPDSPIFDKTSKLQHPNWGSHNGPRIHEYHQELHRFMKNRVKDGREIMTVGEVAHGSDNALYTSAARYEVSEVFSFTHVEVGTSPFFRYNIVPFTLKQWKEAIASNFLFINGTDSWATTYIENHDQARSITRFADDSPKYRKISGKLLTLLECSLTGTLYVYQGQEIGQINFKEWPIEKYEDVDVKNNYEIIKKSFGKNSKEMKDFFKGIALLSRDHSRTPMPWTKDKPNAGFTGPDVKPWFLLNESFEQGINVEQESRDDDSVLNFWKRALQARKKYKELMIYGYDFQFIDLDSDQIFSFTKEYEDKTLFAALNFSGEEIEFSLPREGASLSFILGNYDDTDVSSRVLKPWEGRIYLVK

## [Cu+2] [Cu^++]
[1]
  Inhibition of enzyme activity: inhibited

## [Hg+2] [Hg^++]
[1]
  Inhibition of enzyme activity: inhibited

## O=C(CO[C@H]1O[C@H](CO)[C@@H](O)[C@H](O)[C@H]1O)[C@@H](O)[C@H](O)[C@H](O)CO [Trehalulose, 1-O-α-D-glucopyranosyl-D-fructose]
dd-strain mice
  Acute toxicity: lethal dose (no mouse died up to this dose): > 15000 mg/kg
α-glucosidase from yeast
  Hydrolysis by α-glucosidase from yeast: Hydrolyzed
[2]
  Time of highest blood sugar-level after the administration: 0.5 to 1 h
  Time of highest insulin-level after the administration: 0.5 to 1 h
Invertase from yeast
  Hydrolysis by an invertase from yeast: Not hydrolyzed

## NC(CO)(CO)CO [Tris-HCl buffer]
[1]
  Inhibition of enzyme activity: inhibited
